Paper PMC11018795, “The regulatory relationship between NAMPT and PD-L1 in cancer and identification of a dual-targeting inhibitor” (EMBO Molecular Medicine, 2024)
Values joined by “and” are separate entries in the source; they are usually repeats but may differ in a detail not shown here. Equal values may be shown once.

Experiments:
Hep-3B cells = test: MTT assay 48 h, Hep-3B; format: cell-based, human
Method: (§1) Cells (5 × 10^3/well) were seeded into a 96-well plate and cultured at 37 °C in a 5% CO2 incubator. […] At the final time point, 10 μl MTT solution (5 mg/ml, Sigma, Burlington, MA, USA) was added to each well and incubated for an additional 4 h at 37 °C in a 5% CO2 incubator. Then,100 μl of DMSO was added to each well and mixed thoroughly. Optical density was measured at 492 nm using a microplate reader (Molecular Devices, San Jose, CA, USA).

[1] = tested on: LLC sh PD-L1 cells co-cultured with T cells; test: T cell killing assay (colony formation), LLC sh PD-L1; format: cell-based; settings: Mus musculus, 72 h, 100 nM, three days, read-out: inhibition rate of colony formation number
Method: To acquire activated T cells, human peripheral blood mononuclear cells (PBMC; LTS1077, Yanjin Biological) were cultured in CTSTM AIIM VTM SFM (A3021002; Gibco) with ImmunoCult Human CD3/CD28/CD2 T-cell activator (25 μL/mL; […] Technologies, Cat#10970) for 48 h according to the manufacturer's protocol. The experiments were performed using mouse anti-CD3 antibody (1 μg/mL; Thermo Scientific, 16-0032-82) and anti-CD28 antibody(5 μg/mL; Thermo Scientific, 16-0281-82). […] Different proportions of cancer cells and activated T cells were utilized according to the purpose of each experiment. The T-cell proliferation assay was 1:3; the T-cell killing assay was 1:10; T cells and cell debris were removed by PBS washing, and the living cancer cells were then quantified by a spectrometer at OD (570 nm) followed by crystal violet staining. page 28: Fig 8: Effects of LZFPN-90 and NMN on tumor immune microenvironment. […] (C) T cells were co-cultured with LLC cells, and treated with LZFPN-90 (100 nM), and NMN (1 mM) to detect the cell proliferation by T cell killing assay. Data are presented as mean ± SEM; *P < 0.05, **P < 0.01, ***P < 0.001 compared with control. n.s., not significant. (1 picture or pasted object on this page, not shown here)

MKN74 cells = test: MTT assay 48 h, MKN74; format: cell-based, human
Method: as §1

[2] = tested on: NAD+ content of LLC OE NAMPT/PD-L1 tumor tissue; test: NAD+ in tumor tissue, LLC OE NAMPT/PD-L1 mouse model; format: in vivo; settings: 20 mg/kg
A20 tumors = test: A20 tumor-bearing Balb/c nude mice; format: in vivo, mouse; settings: 20 mg/kg i.p., Fig 6E
Method: The 4–6 weeks-old Balb/c mice and Balb/c nude mice were maintained in a specific pathogen-free (SPF) facility. A20 cells (5 × 10^6 cells in 0.2 ml phosphate-buffered saline) were subcutaneously injected into the right armpit of Balb/c mice and Balb/c nude mice. Tumor volume was measured using calipers every 2 days and calculated using the following formula: (long diameter) × (short diameter)^2/2. […] Balb/c nude mice were treated with LZFPN-90 (20 mg/kg). After 12 days of administration, the animals were anesthetized, and tumors were excised. Some fresh tumor tissues were subjected to immune cell isolation. Tissues were either fixed in 4% formalin or stored at −80 °C until further analysis.

HCT-116 cells = test: Apoptosis assay (Annexin V/PI), HCT-116; format: cell-based, human; settings: HCT116
Method: The cells are treated with the compounds. After 48–72 h, the cells were harvested and washed twice with cold PBS. The cells were then stained with Annexin V/propidium iodide (PI) (BD Biosciences) and examined using a NovoCyte Flow Cytometer (ACEA Biosciences). Data were analyzed using NovoExpress software (ACEA Biosciences).

[3] = tested on: LLC OE N/P cells co-cultured with T cells; test: T cell-mediated tumor cell killing assay, LLC OE N/P; format: cell-based; settings: Mus musculus, 100 nM, read-out: inhibition rate (T cell-mediated killing)
Method: To acquire activated T cells, human peripheral blood mononuclear cells (PBMC; LTS1077, Yanjin Biological) were cultured in CTSTM AIIM VTM SFM (A3021002; Gibco) with ImmunoCult Human CD3/CD28/CD2 T-cell activator (25 µL/mL; […] Technologies, Cat#10970) for 48 h according to the manufacturer’s protocol. The experiments were performed using mouse anti-CD3 antibody (1 µg/mL; Thermo Scientific, 16-0032-82) and anti-CD28 antibody(5 µg/mL; Thermo Scientific, 16-0281-82). Cancer cells were allowed to adhere to the plates overnight and then incubated for 48 h with activated T cells in the presence or absence of DX ([…]). Different proportions of cancer cells and activated T cells were utilized according to the purpose of each experiment. The T-cell proliferation assay was 1:3; the T-cell killing assay was 1:10; T cells and cell debris were removed by PBS washing, and the living cancer cells were then quantified by a spectrometer at OD (570 nm) followed by crystal violet staining. page 12: Fig 3: […] expression patterns. […] Data was obtained from the TCGA database. (B) T cell-mediated tumor cell killing assay. T cells were co-cultured with LLC Vector, […] CQ-85, or BMS202. […] stained by crystal violet. The relative added value of activated T cells is shown below. Data are presented as mean ± SEM; *P < 0.05, **P < 0.01, ***P < 0.001, compared with control. n.s., not significant. […]

LLC OE NAMPT cells = test: Cell viability 72 h, LLC OE NAMPT (Fig 4C); format: cell-based, mouse
Method: as §1, with “In vitro cell viability was determined using a Cell Counting Kit-8 (MCE) assay. Cells (5 × 10^3/well) were seeded in 96-well culture plates. After 24 h, they were incubated with various concentrations of the test compounds for 48–72 h at 37 °C in a 5% CO2 incubator. Next, 10% of the CCK-8 solution was added to each well, and the plates were incubated for an additional 4 h at 37 °C. The optical density of each well was measured at 450 nm using a multimode plate reader (Molecular Devices, San Jose, CA, USA). Cells” for “Cells”

CCN(CC)CCCOc1cccc(-c2cccc3c2CCN3C(=O)c2ncc(CNC(=NC#N)Nc3ccncc3)s2)c1 [LZFPN-90]
Relative inhibition (敏感性) (Hep-3B cells): 0.42 | inhibition at 0.1 µM [1]: 21.9% | Relative inhibition (敏感性) (MKN74 cells): 0.79 | effect on NAD+ content in tumor tissues [2]: reduced NAD^+ content in tumor tissues | NAD+ in 20 mg tissue ([2]; tumor tissue): 221.603 and 139.494 and 234.768 | TIR (relative tumor weight) (A20 tumors): 46.2% | Apoptotic cells (sum of both Annexin-positive quadrants) (HCT-116 cells; LZ90 15 nM): 9.8 and 11.59 and 10.81 | Apoptotic cells (sum of both Annexin-positive quadrants) (HCT-116 cells; LZ90 60 nM): 14.57 and 17.94 and 17.19 | Apoptotic cells (sum of both Annexin-positive quadrants) (HCT-116 cells; LZ90 240 nM): 13.96 and 15.34 and 15.58 | inhibition at 0.1 µM [3]: ~80% | Relative viability (LLC OE NAMPT cells; head LLC OE NAMPT/PD-L1 (legend: LLC OE NAMPT), LZ90 0.25 (nM), 0 = 100): 77.2963 and 85.357 and 93.8244 | Relative viability (LLC OE NAMPT cells; head LLC OE NAMPT/PD-L1, LZ90 1): 81.6379 and 75.0704 and 92.5933 | Relative viability (LLC OE NAMPT cells; head LLC OE NAMPT/PD-L1, LZ90 4): 70.2024 and 73.3725 and 88.779 | Relative viability (LLC OE NAMPT cells; head LLC OE NAMPT/PD-L1, LZ90 16): 63.5687 and 62.4896 and 67.6771 | Relative viability (LLC OE NAMPT cells; head LLC OE NAMPT/PD-L1, LZ90 64): 57.8886 and 54.3565 and 56.8184 | Relative viability (LLC OE NAMPT cells; head LLC OE NAMPT/PD-L1, LZ90 256): 39.2756 and 40.3926 and 41.8466
